In the supplement of paper PMC10331698:
± gives the standard deviation of the averaged measurements.

How the values were obtained:
Experiment in all cases: level (log10 ratio to DMSO vehicle control); higher = higher biomarker level / cell amount than vehicle control
Conditions in all cases: in DMSO
[1] = compound: FC(F)C(F)(F)COCC1CO1 [((2,2,3,3-Tetrafluoropropoxy)methyl)oxirane]
Method: (§1)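 BioMAP Diversity Plus panel of 12 human primary cell co-culture systems (3C, 4H, LPS, SAg, BT, BF4T, BE3C, CASM3C, HDF3CGF, KF3CT, MyoF, Mphg). Compounds were added 1 h before stimulation and left for 24 h (MyoF 48 h; BT 72 h for soluble read-outs or 6 d for IgG). Biomarkers were read by ELISA, cytotoxicity by SRB, PBMC viability and proliferation by Alamar Blue. Each well value was divided by the mean of 8 DMSO control wells on the same plate and log10 transformed; duplicate blinded samples were tested at 4 concentrations.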

[2] = compound: FC(F)(F)C(F)(C(F)(F)F)C(F)(F)C(F)(F)CC1CO1 [3-(Perfluoro-3-methylbutyl)-1,2-propenoxide]
Method: as §1

Perfluoro-1-iodohexane = compound: FC(F)(F)C(F)(F)C(F)(F)C(F)(F)C(F)(F)C(F)(F)I [Perfluoro-1-iodohexane]
Method: as §1

[3] = compound: O=S(=O)(O)C(F)(F)C(F)(F)C(F)(F)C(F)(F)C(F)(F)C(F)(F)F [Perfluorohexanesulfonic acid]
Method: as §1

[4] = compound: OCC(F)(F)OC(F)(F)C(F)(F)OC(F)(F)CO [1H,1H,8H,8H-Perfluoro-3,6-dioxaoctane-1,8-diol]
Method: as §1

Perfluorobutanoic acid = compound: O=C(O)C(F)(F)C(F)(F)C(F)(F)F [Perfluorobutanoic acid]
Method: as §1

[5] = compound: O=C(O)C(F)(F)C(F)(F)OC(F)(F)F [Perfluoro-3-methoxypropanoic acid]
Method: as §1

| Test System | level (log10) ([1]; 6700 nM) | level (log10) ([1]; 20000 nM) | level (log10) ([1]; 60000 nM) | level (log10) ([2]; 6700 nM) | level (log10) ([2]; 20000 nM) | level (log10) (Perfluoro-1-iodohexane; 6700 nM) | level (log10) (Perfluoro-1-iodohexane; 20000 nM) | level (log10) (Perfluoro-1-iodohexane; 60000 nM) | level (log10) ([3]; 6700 nM) | level (log10) ([3]; 20000 nM) | level (log10) ([3]; 60000 nM) | level (log10) ([4]; 6700 nM) | level (log10) ([4]; 20000 nM) | level (log10) ([4]; 60000 nM) | level (log10) (Perfluorobutanoic acid; 6700 nM) | level (log10) (Perfluorobutanoic acid; 20000 nM) | level (log10) (Perfluorobutanoic acid; 60000 nM) | level (log10) ([5]; 6700 nM) | level (log10) ([5]; 20000 nM) | level (log10) ([5]; 60000 nM) |
| --- | --- | --- | --- | --- | --- | --- | --- | --- | --- | --- | --- | --- | --- | --- | --- | --- | --- | --- | --- | --- |
| CASM3C:CXCL9/MIG | 0.002 ± 0.0085 | -0.009 ± 0.02 | 0.014 ± 0.062 | -0.015 ± 0.014 | -0.001 ± 0.017 | -0.0015 ± 0.0064 | 0.002 ± 0.0028 | -0.0025 ± 0.036 | 0.003 ± 0.0099 | 0.0045 ± 0.0064 | 0.012 ± 0.0014 | 0.0055 ± 0.012 | 0.0175 ± 0.011 | 0.0205 ± 0.0035 | 0.001 ± 0.0028 | -0.004 ± 0.0028 | 0.007 ± 0.0057 | -0.0175 ± 0.0078 | 0.0065 ± 0.005 | 0.027 ± 0.024 |
| lMphg:IL-1alpha | -0.004 ± 0.017 | -0.039 ± 0.035 | -0.0235 ± 0.033 | -0.038 ± 0.042 | 0.034 ± 0.085 | 0.008 ± 0.0057 | 0.0525 ± 0.019 | 0.027 ± 0.011 | 0.023 ± 0.095 | 0.012 ± 0.047 | 0.0305 ± 0.063 | -0.027 ± 0.09 | -0.036 ± 0.035 | -0.021 ± 0.018 | 0.002 ± 0.041 | 0.022 ± 0.079 | 0.0365 ± 0.076 | -0.008 ± 0.03 | -0.0055 ± 0.033 | 0.0115 ± 0.005 |
| KF3CT:TIMP-2 | -0.0135 ± 0.016 | -0.0115 ± 0.019 | -0.0045 ± 0.026 | -0.003 ± 0.0042 | 0.0015 ± 0.042 | 0.0015 ± 0.013 | 0.0135 ± 0.019 | 0.0035 ± 0.011 | 0.0005 ± 0.0064 | 0.012 ± 0.0042 | 0.019 ± 0.013 | 0.0025 ± 0.005 | 0.005 ± 0.0014 | 0.0065 ± 0.0092 | -0.005 ± 0.014 | -0.009 ± 0.0071 | -0.002 ± 0.0014 | -0.0045 ± 0.025 | 0.0075 ± 0.035 | 0.004 ± 0.016 |
| BE3C:MMP-1 | -0.013 ± 0.02 | -0.0335 ± 0.019 | -0.0185 ± 0.0078 | 0.0085 ± 0.076 | 0.0445 ± 0.1 | -0.003 ± 0.0085 | -0.0065 ± 0.011 | 0.043 ± 0.016 | 0.0075 ± 0.00071 | 0.0375 ± 0.018 | 0.227 ± 0.042 | 0.0105 ± 0.011 | -0.013 ± 0.021 | 0.009 ± 0.052 | -0.004 ± 0.034 | -0.0075 ± 0.013 | 0.021 ± 0.014 | -0.0025 ± 0.018 | 0.002 ± 0.013 | 0.0155 ± 0.00071 |
| MyoF:PAI-I | -0.008 ± 0.0028 | -0.002 ± 0.0085 | -0.0115 ± 0.0064 | -0.0015 ± 0.013 | -0.0035 ± 0.015 | -0.001 ± 0.0028 | -0.025 ± 0.0057 | -0.12 ± 0.054 | -0.0055 ± 0.013 | -0.0135 ± 0.015 | -0.0055 ± 0.012 | -0.008 ± 0.0099 | -0.008 ± 0.017 | 0.0025 ± 0.0078 | -0.008 ± 0.0014 | -0.0055 ± 0.018 | -0.0105 ± 0.013 | 0.0045 ± 0.016 | -0.001 ± 0.0014 | 0.0025 ± 0.0035 |
| MyoF:TIMP-1 | 0.0165 ± 0.018 | -0.0295 ± 0.0092 | -0.001 ± 0.023 | -0.0165 ± 0.022 | -0.047 ± 0.052 | 0.036 ± 0.0085 | 0.0395 ± 0.011 | -0.058 ± 0.0014 | 0.0215 ± 0.064 | 0.0835 ± 0.053 | 0.099 ± 0.042 | -0.0015 ± 0.036 | 0.038 ± 0.025 | 0.052 ± 0.03 | -0.039 ± 0.055 | -0.02 ± 0.02 | 0.0035 ± 0.0092 | 0.015 ± 0.055 | 0.0185 ± 0.033 | 0.0455 ± 0.012 |
| BE3C:Keratin 8/18 | -0.004 ± 0.0071 | -0.019 ± 0.031 | -0.0045 ± 0.0021 | 0.0005 ± 0.03 | 0.001 ± 0.03 | -0.007 ± 0.037 | -0.0105 ± 0.0078 | 0.005 ± 0.024 | 0.0085 ± 0.0035 | 0.0005 ± 0.0064 | -0.018 ± 0.0085 | -0.0105 ± 0.0078 | -0.003 ± 0.016 | -0.0085 ± 0.013 | -0.005 ± 0.017 | 0.003 ± 0.0071 | -0.0195 ± 0.016 | -0.0155 ± 0.0092 | -0.006 ± 0.017 | -0.003 ± 0.024 |
| CASM3C:CXCL8/IL-8 | -0.003 ± 0.0085 | -0.0195 ± 0.028 | 0.0215 ± 0.032 | -0.0065 ± 0.005 | -0.003 ± 0.0014 | 0.0055 ± 0.0092 | -0.0005 ± 0.0078 | 0.011 ± 0.021 | -0.006 ± 0.013 | -0.003 | 0.026 ± 0.014 | 0.0045 ± 0.0064 | -0.002 ± 0.0028 | 0.0125 ± 0.013 | -0.001 ± 0.013 | -0.0065 ± 0.005 | 0.008 ± 0.013 | 0.0045 ± 0.03 | 0.006 ± 0.03 | 0.033 ± 0.0028 |
| MyoF:Collagen III | -0.0045 ± 0.0035 | -0.0105 ± 0.005 | -0.005 | -0.004 ± 0.0099 | -0.0275 ± 0.0078 | -0.0225 ± 0.0064 | -0.039 ± 0.0057 | -0.132 ± 0.036 | 0.0035 ± 0.005 | -0.013 ± 0.0028 | -0.0125 ± 0.033 | -0.0225 ± 0.015 | 0.001 | -0.012 ± 0.028 | -0.0155 ± 0.016 | 0.0025 ± 0.011 | -0.0145 ± 0.025 | 0.004 ± 0.0099 | 0.0095 ± 0.0078 | 0.013 ± 0.0014 |
| lMphg:CD106/VCAM-1 | -0.016 ± 0.038 | -0.0155 ± 0.025 | -0.017 ± 0.017 | 0.005 | -0.0115 ± 0.022 | 0.0085 ± 0.032 | -0.0035 ± 0.018 | -0.003 ± 0.0099 | -0.011 ± 0.044 | 0.0075 ± 0.0035 | 0.005 ± 0.011 | -0.0355 ± 0.05 | -0.0035 ± 0.012 | -0.028 ± 0.034 | -0.0165 ± 0.025 | -0.007 ± 0.034 | -0.0085 ± 0.022 | -0.0005 ± 0.035 | -0.0035 ± 0.021 | -0.0235 ± 0.0035 |
| MyoF:Collagen IV | -0.0035 ± 0.013 | -0.0065 ± 0.016 | 0.0065 ± 0.025 | 0.029 ± 0.024 | 0.057 ± 0.075 | -0.033 ± 0.027 | -0.031 ± 0.028 | 0.193 ± 0.013 | -0.023 ± 0.018 | -0.0065 ± 0.032 | 0 ± 0.031 | -0.021 ± 0.013 | -0.0125 ± 0.015 | 0.0065 ± 0.032 | -0.032 ± 0.051 | -0.0215 ± 0.04 | -0.0055 ± 0.018 | -0.021 ± 0.02 | 0.002 ± 0.0085 | 0.009 ± 0.013 |
| lMphg:CD62E/E-Selectin | -0.0155 ± 0.0064 | -0.0195 ± 0.029 | -0.035 ± 0.011 | 0.0085 ± 0.019 | 0.0025 ± 0.013 | 0.005 ± 0.0042 | 0.018 ± 0.02 | 0.0305 ± 0.033 | 0.0145 ± 0.00071 | 0.019 ± 0.0099 | 0.0955 ± 0.035 | -0.0235 ± 0.019 | 0.004 ± 0.033 | -0.003 ± 0.03 | 0.0155 ± 0.036 | 0.027 ± 0.041 | 0.0175 ± 0.023 | -0.012 ± 0.018 | -0.037 ± 0.03 | 0.019 ± 0.075 |
| MyoF:Decorin | -0.0065 ± 0.0035 | -0.007 ± 0.0071 | 0.0075 ± 0.012 | 0.0025 ± 0.029 | 0.026 ± 0.042 | 0.0185 ± 0.011 | 0.023 ± 0.0042 | -0.012 ± 0.044 | -0.0305 ± 0.046 | -0.0105 ± 0.00071 | -0.0095 ± 0.0064 | -0.0155 ± 0.011 | 0.003 ± 0.0071 | 0.02 ± 0.02 | -0.013 ± 0.0014 | -0.0105 ± 0.039 | -0.0025 ± 0.00071 | 0.005 ± 0.017 | 0.0085 ± 0.0078 | 0.0085 ± 0.03 |
| BE3C:uPA | -0.0105 ± 0.025 | -0.021 ± 0.035 | -0.004 ± 0.025 | 0.0005 ± 0.018 | 0.004 ± 0.021 | 0.0175 ± 0.015 | -0.0005 ± 0.0035 | 0.001 ± 0.0085 | 0.0145 ± 0.016 | -0.0005 ± 0.028 | 0.0115 ± 0.019 | -0.01 ± 0.0042 | 0 ± 0.037 | -0.016 ± 0.0057 | -0.0065 ± 0.026 | -0.007 ± 0.011 | -0.015 ± 0.014 | -0.004 ± 0.0014 | -0.0025 ± 0.0021 | 0.0005 ± 0.0092 |
